Where two headings read alike, the source gives them in different places.
Legend:
[1] = cited from earlier work
[2] = standard high-fat breakfast; cited from earlier work
[3] = cited from earlier work; remark: listed apart in the source
[4] = Solubility and permeability of eltrombopag (general statements, data not shown); assay type: physicochemical; details: even in the form of bis-monoethanolamine salt
[5] = cited from earlier work; remark: listed apart in the source
[6] = single 25-mg dose for oral suspension 2 hours after the high-calcium meal
[7] = single 25-mg dose for oral suspension 2 hours before the high-calcium meal
[8] = single 25-mg dose for oral suspension with a high-calcium, moderate-fat, moderate-calorie meal

Row | SMILES | AUC elevation compared with the fasted state ([1]; after a high fat meal) | Cmax elevation compared with the fasted state ([1]; after a high fat meal) | AUC elevated compared with the fasted state ([1]; after a low fat meal) | Cmax elevated compared with the fasted state ([1]; after a low fat meal) | decrease of plasma eltrombopag AUCO-∞ [2] | decrease of plasma eltrombopag Cmax [2] | solubility (BCS context) [3] | solubility in water and in a number of liquid/semisolid surfactants [4] | reduction of plasma eltrombopag AUCO-∞ [5, 6] | reduction of plasma eltrombopag Cmax [5, 6] | reduction of plasma eltrombopag AUCO-∞ [5, 7] | reduction of plasma eltrombopag Cmax [5, 7] | reduction of plasma eltrombopag AUCO-∞ [5, 8] | reduction of plasma eltrombopag Cmax [5, 8]
1 | C[C@]12CC[C@H](O)CC1=CC[C@@H]1[C@@H]2CC[C@]2(C)C(c3cccnc3)=CC[C@@H]12 [abiraterone] | 10 fold | 17 fold | 5 fold | 7 fold |  |  |  |  |  |  |  |  |  | 
2 | CC1=NN(c2ccc(C)c(C)c2)C(=O)/C1=N\Nc1cccc(-c2cccc(C(=O)O)c2)c1O [eltrombopag, 3′-[(2Z)-[1-(3,4-dimethylphenyl)-1,5-dihydro-3-methyl-5-oxo-4H-pyrazol-4-ylidene]hydrazino]-2′-hydroxy-[1,1′-biphenyl]-3-carboxylic acid] |  |  |  |  | approximately 59% | 65% | low soluble | low solubility | 47% | 48% | 20% | 14% | 75% | 79%
